From patent US20240027453A1, “METHOD FOR DETECTION AND QUANTITATIVE MONITORING OF INFECTIONS WITH HERPESVIRUSES” (The Trustees of Princeton University, priority 2020, published 2024)
Where two headings read alike, the source gives them in different places.

Test system: HCMV
Format: cell-based
Method: In example herpesvirus PRM assay methods shown herein, cell pellets were lysed in 2% SDS, 100 mM NaCl, 0.5 mM EDTA, 50 mM Tris, pH 8.2, and 50 μg of protein was reduced and alkylated with 25 mM TCEP and 50 mM CAM respectively for 20 min at 70° C. Proteins were then precipitated via methanol chloroform precipitation (Wessel & Flugg, Anal Biochem. 138(1):141-143, 1984), resuspended in 50 mM HEPES, pH 8.2 and digested overnight with trypsin (50:1 protein:enzyme w/w ratio). Digested peptides were desalted by SDB-RPS StageTip as previously described (Lum et al., Cell Syst., 7(6):[…], 2018; Greco et al., Methods Mol Biol 1410:39-63, 2016; Federspiel & Cristea, Methods Mol Biol., 1977:115-143, 2019).
Peptides (1.0 μg on column) were analyzed by LC-MS/MS using a Dionex Ultimate 3000 UHPLC coupled online to an EASYSpray ion source and a Q Exactive HF. Peptides were separated on an EASYSpray C18 column (75 μm×25 cm) heated to 50° C. using a linear gradient of 5% B to 32% B over 60 min at a flow rate of 250 nL/min and were ionized at 1.7 kv. Mobile phase A consisted of 0.1% FA in H2O and mobile phase B consisted of 0.1% FA, 2.9% H2O in ACN.
The PRM method was controlled by a peptide inclusion list with retention time windows of 6 min for selected precursor ions.
The PRM assay was developed and analyzed using the open-source software Skyline (Maclean et al., Bioinformatics 26(7):966-968, 2010). Summed area under the curve of 3-4 transitions per peptide was used for quantitation. Targeted peptides were normalized to host protein loading control peptides. Peptide values for each sample were scaled to the average of each peptide across all runs. The average of multiple peptides was used as the inferred value for the protein measurement when more than one peptide was quantified (Federspiel et al., PLoS Biol. 17(9):e3000437. Doi: 10.1371/journal.pbio.3000437). PRM quantitation data were graphed using the Python Seaborn and Matplotlib libraries.
MRC5 primary human fibroblasts (HFs) (ATCC CCL-171) were used as the model system for HSV-1 and HCMV infections and were cultured in complete growth medium (DMEM supplemented with 10% fetal bovine serum and 1% penicillin-streptomycin antibiotics) at 37° C. and 5% CO2. iSLK.219 cells harboring latent KSHV (a gift from Dr. Britt Glaunsinger, University of California, Berkeley) were grown in complete growth medium supplemented with 500 μg/ml hygromycin (ThermoFisher Scientific, 10687010) at 37° C. and 5% CO2. All cells were used for experiments within a maximum of 10 passages.
Wild type HSV-1 strain 17+ (a gift from Beate Sodeik, Hannover Medical School, Hannover, Germany) was propagated as previously described (Diner et al., 2015). Briefly, PO stocks were generated by electroporating pBAC-HSV-1 into U-2 OS cells. […] In a similar manner, wild type HCMV strain AD169 was produced from BAC electroporation into HFs and working stocks were propagated by infecting HFs at a low level. In both cases, cell-associated virus was released by sonication, combined with supernatant virus, then concentrated by ultracentrifugation (20,000 rpm, 2 hours, 4° C. with SW28 swinging bucket rotor [Beckman Coulter]) over a 10% ficoll (HSV-1) or 20% sorbitol (HCMV) cushion. Virus stock titers were determined by plaque assay for HSV-1 or tissue culture infectious dose (TCID50) for HCMV and infections were performed at a multiplicity of infection (MOI) of 3.
12 hours prior to virus infection or reactivation, cells were treated with either the small molecule drug or DMSO/PBS control at an equivalent volume. […] For infection cycles lasting longer than 24 hours, small molecule drugs were re-added to the cell culture medium every 24 hours. Upon collection, cells were rinsed with PBS, scraped into a microcentrifuge tube, pelleted by centrifugation, and rinsed again with PBS.

Nc1ccn(C[C@@H](CO)OCP(=O)(O)O)c(=O)n1 [CDV, cidofovir]
gB (P06473) protein, numerical value of heatmap FIG. 6C (DE, timepoint 96): 0.9959
sp|P09710|IR01_HCMVA (P09710) protein, numerical value of heatmap FIG. 6C (DE, timepoint 96): 0.4967
CVC2 (P16726) protein, numerical value of heatmap FIG. 6C (DE, timepoint 120): 0.9588
DBP (P17147) protein, numerical value of heatmap FIG. 6C (DE, timepoint 120): 2.035
HELI (P16736) protein, numerical value of heatmap FIG. 6C (DE, timepoint 120): 1.128
NEC1 (P16794) protein, numerical value of heatmap FIG. 6C (DE, timepoint 120): 1.121
NEC2 (P16791) protein, numerical value of heatmap FIG. 6C (DE, timepoint 120): 1.797
RIR1 (P16782) protein, numerical value of heatmap FIG. 6C (DE, timepoint 120): 1.313
TRM1 (P16724) protein, numerical value of heatmap FIG. 6C (DE, timepoint 120): 1.312
UL4 (P17146) protein, numerical value of heatmap FIG. 6C (DE, timepoint 120): 0.635
UL26 (P16762) protein, numerical value of heatmap FIG. 6C (DE, timepoint 120): 1.564
UL32 (P08318) protein, numerical value of heatmap FIG. 6C (DE, timepoint 120): 1.478
UL34 (P16812) protein, numerical value of heatmap FIG. 6C (DE, timepoint 120): 0.9444
UL35 (P16766) protein, numerical value of heatmap FIG. 6C (DE, timepoint 120): 1.133
UL38 (P16779) protein, numerical value of heatmap FIG. 6C (DE, timepoint 120): 1.272
UL44 (P16790) protein, numerical value of heatmap FIG. 6C (DE, timepoint 120): 1.235
UL48 (P16785) protein, numerical value of heatmap FIG. 6C (DE, timepoint 120): 1.1
UL54 (P08546) protein, numerical value of heatmap FIG. 6C (DE, timepoint 120): 1.415
UL71 (P16823) protein, numerical value of heatmap FIG. 6C (DE, timepoint 120): 1.229
UL78 (P16751) protein, numerical value of heatmap FIG. 6C (DE, timepoint 120): 0.9208
UL84 (P16727) protein, numerical value of heatmap FIG. 6C (DE, timepoint 120): 1.217
UL95 (P16801) protein, numerical value of heatmap FIG. 6C (DE, timepoint 120): 0.7275
UL96 (P16787) protein, numerical value of heatmap FIG. 6C (DE, timepoint 120): 1.265
UL97 (P16788) protein, numerical value of heatmap FIG. 6C (DE, timepoint 120): 1.137
UL98 (P16789) protein, numerical value of heatmap FIG. 6C (DE, timepoint 120): 1.14
UL102 (P16827) protein, numerical value of heatmap FIG. 6C (DE, timepoint 120): 1.353
UL104 (P16735) protein, numerical value of heatmap FIG. 6C (DE, timepoint 120): 0.8938
UL112/UL113 (P17151) protein, numerical value of heatmap FIG. 6C (DE, timepoint 120): 0.8795
UL114 (P16769) protein, numerical value of heatmap FIG. 6C (DE, timepoint 120): 1.541
UL119/UL118 (P16739) protein, numerical value of heatmap FIG. 6C (DE, timepoint 120): 0.8678
UL128 (P16837) protein, numerical value of heatmap FIG. 6C (DE, timepoint 120): 1.193
US8 (P09730) protein, numerical value of heatmap FIG. 6C (DE, timepoint 120): 1.14
US9 (P09729) protein, numerical value of heatmap FIG. 6C (DE, timepoint 120): 1.342
US12 (P09721) protein, numerical value of heatmap FIG. 6C (DE, timepoint 120): 0.661
US13 (P09720) protein, numerical value of heatmap FIG. 6C (DE, timepoint 120): 0.7786
US14 (P09719) protein, numerical value of heatmap FIG. 6C (DE, timepoint 120): 0.6977
US18 (P69334) protein, numerical value of heatmap FIG. 6C (DE, timepoint 120): 0.679
US22 (P09722) protein, numerical value of heatmap FIG. 6C (DE, timepoint 120): 1.167
US23 (P09701) protein, numerical value of heatmap FIG. 6C (DE, timepoint 120): 1.024
US24 (P09700) protein, numerical value of heatmap FIG. 6C (DE, timepoint 120): 1.043
gB (P06473) protein, numerical value of heatmap FIG. 6C (DE, timepoint 120): 1.203
sp|P09710|IR01_HCMVA (P09710) protein, numerical value of heatmap FIG. 6C (DE, timepoint 120): 0.7849
IRS1 (P09715) protein, numerical value of heatmap FIG. 6C (IE, timepoint 24): 0.2
TRS1 (P09695) protein, numerical value of heatmap FIG. 6C (IE, timepoint 24): 0.1103
UL13 (P16755) protein, numerical value of heatmap FIG. 6C (IE, timepoint 24): 0.5131
UL36 (P16767) protein, numerical value of heatmap FIG. 6C (IE, timepoint 24): 0.9885
UL37 (P16778) protein, numerical value of heatmap FIG. 6C (IE, timepoint 24): 0.5466
UL122 (P19893) protein, numerical value of heatmap FIG. 6C (IE, timepoint 24): 0.05364
UL123 (P13202) protein, numerical value of heatmap FIG. 6C (IE, timepoint 24): 0.7324
IRS1 (P09715) protein, numerical value of heatmap FIG. 6C (IE, timepoint 48): 0.5408
TRS1 (P09695) protein, numerical value of heatmap FIG. 6C (IE, timepoint 48): 0.403
UL13 (P16755) protein, numerical value of heatmap FIG. 6C (IE, timepoint 48): 0.7812
